In patent US5030012A, “Pyroelectric calorimeter” (The United States of America as represented by the …, priority 1990, dated 1991):

How the values were obtained:
[1] = test system: dark-adapted bullfrog retinas (rods); assay: Pyroelectric calorimetry and transretinal voltage of flash-stimulated dark-adapted retinas; type: cell-based, bullfrog (R. catesbiana)
Method: Dark-adapted bullfrog (R. catesbiana) retinas, removed under infrared illumination, were stored for 10 min to 1 hr in an oxygenated bath containing (in mM) Na^+ : 100, K^+ : 2.7, Ca^++ : 1.4, Mg^++ : 0.5, phosphate: 0.5, HEPES: 10, glucose: 11, EDTA: 0.01, pH 7.1. Cl^- was the main anion. Disks 6.3 mm. across were cut from a retina and attached by their vitreal surfaces to 25 μm. thick nylon mesh (Small Parts, Ltd., Miami, Fla.) disks of the same diameter.
Before use, each disk was soaked for 5 min in a medium containing 10 mM glutamate and 5 mM cysteine to suppress electrical responses from all retinal cells except the rods, cones and glial Muller cells. Using an infrared viewer, the disks were placed on the detector with receptor layer down and excess fluid was blotted away. Flowing moist oxygen replaced the atmosphere every 2 m.
6 μs flashes of spectral width 70 nm. centered at 500, 550 or 640 nm. from a Xenon flash tube were attenuated by a circular graded wedge and fed via a light pipe whose end was projected to a 6 mm circle at the retina. A computerized stepping motor turned the wedge so that flashes of varying intensity could be quickly delivered. The light input at the retina was measured with a silicon photovoltaic diode (International Light, Inc., Newburyport, Mass.). Exposures of the OS were calculated for a rod density in the retinal mosaic of 1.76×10^6 cm^-2. Cone and green rod pigments were neglected and rod porphyropsin was lumped with rhodopsin. Assuming the quantum efficiency of rhodopsin photoisomerization to be 0.6 and its molar absorbance at 550 nm to be 2.0×10^4 M^-1 cm^-1, its isomerization cross section ZR was 4.6×10^-17 cm^2.
In retinas incubated in glutamate Ringer containing […] and a ql of 1-2 μK followed by steady cooling lasting for more than 20 s. or until the dark current resumed. A second flash while the dark current was suppressed (as judged by the absence of change in Vr) gave no ql and no change in rl. In 30 experiments, Vr responses, whose amplitudes corresponded to dark currents of 20-50 pA/rod, were accompanied by ql bursts of 0.8 to 2 μK (mean ±s.e.e.: 1.09±0.05, n=24) while rl varied from -2 to -5 μKs^-1.
ql was unchanged by several agents that suppressed the dark current and changed rl. In this regard, the effects of flashes causing 180 PI/rod on retinal temperature and transretinal voltage were studied with an average of 2-4 trials with 60 s intervals between flashes, during which ql recovered. 30 mM ca^++ in the incubation fluid reduced Vr sixfold and changed rl 's sign while ql remained […] (n=4) μK. […] Nevertheless, a 180 PI/OS flash produced a ql of 1.6±0.1 (n=3) μK and rl of 4 μK/s.

[2] = biological target: cGMP-induced cationic conductance of rod outer segment membrane patches; conditions: cited from earlier work

c1c[nH]cn1 [imidazole]
ql (fast heat burst) ([1]; 20 mM imidazole in incubation medium, n=3): 2.4±0.4 μK

Nc1nc2c(ncn2[C@@H]2O[C@@H]3COP(=O)(O)O[C@H]3[C@H]2O)c(=O)[nH]1 [cGMP]
Kd ([2]; membrane patch conductance vs free [cGMP], various studies, read-out: dissociation constant Kc): 10 to 42 µM | concentration at which the cationic conductance of outer segment membranes increases rapidly and reversibly ([2]; outer segment membranes): > 5 µM

C[C@@H]1O[C@@H](O[C@H]2C[C@@H](O)[C@]3(CO)[C@H]4[C@H](O)C[C@]5(C)[C@@H](C6=CC(=O)OC6)CC[C@]5(O)[C@@H]4CC[C@]3(O)C2)[C@H](O)[C@H](O)[C@H]1O [ouabain]
Vr (transretinal voltage response) ([1]; 50 μM ouabain, 10 m. incubation): no Vr | rl (steady heat flux) ([1]; 50 μM ouabain, 180 PI/OS flash): 4 μK/s | ql (fast heat burst) ([1]; 50 μM ouabain, 180 PI/OS flash, n=3): 1.6±0.1 μK

CC(C)Cn1c(=O)n(C)c(=O)c2[nH]cnc21 [IBMX]
Vr (transretinal voltage response) ([1]; 500 IBMX, 180 PI/rod): suppressed | ql (fast heat burst) ([1]; 500 IBMX, 180 PI/rod): suppressed | Vr (transretinal voltage response) ([1]; 500 IBMX, tenfold brighter flashes): slow Vr waves | ql (delayed heat) ([1]; 500 IBMX, tenfold brighter flashes, n=6): 2.1±0.1 μK
